Key:
Type in all cases: in vivo
[1] = tested on: upland rice (Oryza sp., var.Tebonnet, RICE); assay: Post-emerge greenhouse test, crop damage rating; conditions: 14 days after application, scale 0-100
In short: (§1)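 Compounds in acetone with 0.25% v/v non-ionic surfactant were track-sprayed at 187 l/ha over plants at the 2-3 leaf stage, at 63 to 1000 g ai/ha. Pots were bottom-watered. Injury was scored visually 14 days later on a 0-100 scale, where 0 is no damage and 100 is complete plant death.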

[2] = tested on: field corn (Zea mays L., var. Dekalb 535, CORN); assay: Post-emerge greenhouse test, crop damage rating; conditions: 14 days after application, scale 0-100
In short: as §1

[3] = tested on: soybean (Glycine max L., var. Pella 86, SOY); assay: Pre-emerge greenhouse test, crop damage rating; parameters: key to SOY crop damage rating: 0 = no damage, 100 = complete death of all plants; conditions: 14 days after application, rating scale 0-100
In short: (§2)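 Seeds sown in sandy loam mix one day before track-sprayer application of compounds in acetone at 125–1000 g ai/ha (187 l/ha), then surface-watered to incorporate and bottom-watered. Visual rating 14 days after application on a 0–100 scale (0 = no damage, 100 = all plants dead).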

[4] = tested on: upland rice (Oryza sp., var.Tebonnet, RICE); assay: Pre-emerge greenhouse test, crop damage rating; conditions: 14 days after application, rating scale 0-100
In short: as §2

[5] = tested on: field corn (Zea mays L., var. Dekalb 535, CORN); assay: Pre-emerge greenhouse test, crop damage rating; conditions: 14 days after application, rating scale 0-100
In short: as §2

[6] = tested on: sicklepod (Cassia obtusifolia, CASOB); assay: Pre-emerge greenhouse herbicide test, phytotoxicity rating; conditions: 14 days after application, rating scale 0-100
In short: as §2

[7] = tested on: velvetleaf (Abutilon theophrasti, ABUTH); assay: as above; conditions: 14 days after application, rating scale 0-100
In short: as §2

[8] = tested on: large crabgrass (Digitaria sanguinalis, DIGSA); assay: as above; conditions: 14 days after application, rating scale 0-100
In short: as §2

[9] = tested on: redroot pigweed (Amaranthus retroflexus, AMARE); assay: as above; conditions: 14 days after application, rating scale 0-100
In short: as §2

[10] = tested on: Johnsongrass (Sorghum halepense, SORHA); assay: as above; conditions: 14 days after application, rating scale 0-100
In short: as §2

[11] = tested on: barnyardgrass (Echinochloa crusgalli, ECHCG); assay: as above; conditions: 14 days after application, rating scale 0-100
In short: as §2

[12] = tested on: common ragweed (Ambrosia artemisiifolia L., AMBEL); assay: as above; conditions: 14 days after application, rating scale 0-100
In short: as §2

[13] = tested on: lambsquarters (Chenopodium album, CHEAL); assay: as above; conditions: 14 days after application, rating scale 0-100
In short: as §2

[14] = tested on: ivyleaf morningglory (Ipomoea hederacea, IPOHE); assay: as above; conditions: 14 days after application, rating scale 0-100
In short: as §2

[15] = tested on: green foxtail (Setaria viridis, SETVI); assay: as above; conditions: 14 days after application, rating scale 0-100
In short: as §2

[16] = tested on: soybean (Glycine max L., var. Pella 86, SOY); assay: Post-emerge greenhouse test, crop damage rating; parameters: key to crop damage rating SOY: 0-100 scale: 0 = no damage, 100 = complete death of all plants; conditions: 14 days after application, scale 0-100
In short: as §1

[17] = tested on: common ragweed (Ambrosia artemisiifolia L., AMBEL); assay: Post-emerge greenhouse herbicide test, phytotoxicity rating; conditions: 14 days after application, scale 0-100
In short: as §1

[18] = tested on: velvetleaf (Abutilon theophrasti, ABUTH); assay: as above; conditions: 14 days after application, scale 0-100
In short: as §1

[19] = tested on: large crabgrass (Digitaria sanguinalis, DIGSA); assay: as above; conditions: 14 days after application, scale 0-100
In short: as §1

[20] = tested on: redroot pigweed (Amaranthus retroflexus, AMARE); assay: as above; conditions: 14 days after application, scale 0-100
In short: as §1

[21] = tested on: Johnsongrass (Sorghum halepense, SORHA); assay: as above; conditions: 14 days after application, scale 0-100
In short: as §1

[22] = tested on: barnyardgrass (Echinochloa crusgalli, ECHCG); assay: as above; conditions: 14 days after application, scale 0-100
In short: as §1

[23] = tested on: lambsquarters (Chenopodium album, CHEAL); assay: as above; conditions: 14 days after application, scale 0-100
In short: as §1

[24] = tested on: ivyleaf morningglory (Ipomoea hederacea, IPOHE); assay: as above; conditions: 14 days after application, scale 0-100
In short: as §1

[25] = tested on: green foxtail (Setaria viridis, SETVI); assay: as above; conditions: 14 days after application, scale 0-100
In short: as §1

## O=c1n(-c2cc(Oc3ccccn3)c(Cl)cc2F)c(=S)n2n1CCCC2 [Compound 8-17]
[1]; rate 63 g ai/ha
  crop damage rating RICE: 40
[1]; rate 500 g ai/ha
  crop damage rating RICE: 90
[2]; rate 63 g ai/ha
  crop damage rating CORN: 20
[2]; rate 500 g ai/ha
  crop damage rating CORN: 10
[3]; Rate 125 g al/ha
  SOY crop damage rating: 0
[3]; Rate 500 g al/ha
  SOY crop damage rating: 95
[4]; Rate 125 g al/ha
  RICE crop damage rating: 50
[4]; Rate 500 g al/ha
  RICE crop damage rating: 95
[5]; Rate 125 g al/ha
  CORN crop damage rating: 10
[5]; Rate 500 g al/ha
  CORN crop damage rating: 30
[6]; Rate 125 g al/ha
  CASOB phytotoxicity rating: 100
[6]; Rate 500 g al/ha
  CASOB phytotoxicity rating: 80
[7]; Rate 125 g al/ha
  ABUTH phytotoxicity rating: 100
[7]; Rate 500 g al/ha
  ABUTH phytotoxicity rating: 100
[8]; Rate 125 g al/ha
  DIGSA phytotoxicity rating: 100
[8]; Rate 500 g al/ha
  DIGSA phytotoxicity rating: 100
[9]; Rate 125 g al/ha
  AMARE phytotoxicity rating: 100
[9]; Rate 500 g al/ha
  AMARE phytotoxicity rating: 100
[10]; Rate 125 g al/ha
  SORHA phytotoxicity rating: 50
[10]; Rate 500 g al/ha
  SORHA phytotoxicity rating: 100
[11]; Rate 125 g al/ha
  ECHCG phytotoxicity rating: 85
[11]; Rate 500 g al/ha
  ECHCG phytotoxicity rating: 100
[12]; Rate 125 g al/ha
  AMBEL phytotoxicity rating: 100
[12]; Rate 500 g al/ha
  AMBEL phytotoxicity rating: 100
[13]; Rate 125 g al/ha
  CHEAL phytotoxicity rating: 100
[13]; Rate 500 g al/ha
  CHEAL phytotoxicity rating: 100
[14]; Rate 125 g al/ha
  IPOHE phytotoxicity rating: 80
[14]; Rate 500 g al/ha
  IPOHE phytotoxicity rating: 99
[15]; Rate 125 g al/ha
  SETVI phytotoxicity rating: 100
[15]; Rate 500 g al/ha
  SETVI phytotoxicity rating: 100
[16]; rate 63 g ai/ha
  crop damage rating SOY: 90
[16]; rate 500 g ai/ha
  crop damage rating SOY: 100
[17]; rate 63 g ai/ha
  phytotoxicity rating AMBEL: 60
[17]; rate 500 g ai/ha
  phytotoxicity rating AMBEL: 100
[18]; rate 63 g ai/ha
  phytotoxicity rating ABUTH: 100
[18]; rate 500 g ai/ha
  phytotoxicity rating ABUTH: 100
[19]; rate 63 g ai/ha
  phytotoxicity rating DIGSA: 50
[19]; rate 500 g ai/ha
  phytotoxicity rating DIGSA: 90
[20]; rate 63 g ai/ha
  phytotoxicity rating AMARE: 100
[20]; rate 500 g ai/ha
  phytotoxicity rating AMARE: 100
[21]; rate 63 g ai/ha
  phytotoxicity rating SORHA: 50
[21]; rate 500 g ai/ha
  phytotoxicity rating SORHA: 100
[22]; rate 63 g ai/ha
  phytotoxicity rating ECHCG: 90
[22]; rate 500 g ai/ha
  phytotoxicity rating ECHCG: 100
[23]; rate 63 g ai/ha
  phytotoxicity rating CHEAL: 99
[23]; rate 500 g ai/ha
  phytotoxicity rating CHEAL: 100
[24]; rate 63 g ai/ha
  phytotoxicity rating IPOHE: 100
[24]; rate 500 g ai/ha
  phytotoxicity rating IPOHE: 100
[25]; rate 63 g ai/ha
  phytotoxicity rating SETVI: 50
[25]; rate 500 g ai/ha
  phytotoxicity rating SETVI: 90

## CS(=O)(=O)c1cccnc1Oc1cc(-n2c(=O)n3n(c2=S)CCCC3)c(F)cc1Cl [Compound 8-21]
[1]; rate 63 g ai/ha
  crop damage rating RICE: 50
[1]; rate 500 g ai/ha
  crop damage rating RICE: 60
[2]; rate 63 g ai/ha
  crop damage rating CORN: 10
[2]; rate 500 g ai/ha
  crop damage rating CORN: 0
[3]; Rate 125 g al/ha
  SOY crop damage rating: 0
[3]; Rate 500 g al/ha
  SOY crop damage rating: 80
[4]; Rate 125 g al/ha
  RICE crop damage rating: 40
[4]; Rate 500 g al/ha
  RICE crop damage rating: 95
[5]; Rate 125 g al/ha
  CORN crop damage rating: 0
[5]; Rate 500 g al/ha
  CORN crop damage rating: 10
[6]; Rate 125 g al/ha
  CASOB phytotoxicity rating: 70
[6]; Rate 500 g al/ha
  CASOB phytotoxicity rating: 100
[7]; Rate 125 g al/ha
  ABUTH phytotoxicity rating: 100
[7]; Rate 500 g al/ha
  ABUTH phytotoxicity rating: 100
[8]; Rate 125 g al/ha
  DIGSA phytotoxicity rating: 70
[8]; Rate 500 g al/ha
  DIGSA phytotoxicity rating: 100
[9]; Rate 125 g al/ha
  AMARE phytotoxicity rating: 100
[9]; Rate 500 g al/ha
  AMARE phytotoxicity rating: 100
[10]; Rate 125 g al/ha
  SORHA phytotoxicity rating: 50
[10]; Rate 500 g al/ha
  SORHA phytotoxicity rating: 100
[11]; Rate 125 g al/ha
  ECHCG phytotoxicity rating: 40
[11]; Rate 500 g al/ha
  ECHCG phytotoxicity rating: 90
[12]; Rate 125 g al/ha
  AMBEL phytotoxicity rating: 70
[12]; Rate 500 g al/ha
  AMBEL phytotoxicity rating: 90
[13]; Rate 125 g al/ha
  CHEAL phytotoxicity rating: 100
[13]; Rate 500 g al/ha
  CHEAL phytotoxicity rating: 100
[14]; Rate 125 g al/ha
  IPOHE phytotoxicity rating: 90
[14]; Rate 500 g al/ha
  IPOHE phytotoxicity rating: 100
[15]; Rate 125 g al/ha
  SETVI phytotoxicity rating: 99
[15]; Rate 500 g al/ha
  SETVI phytotoxicity rating: 100
[16]; rate 63 g ai/ha
  crop damage rating SOY: 90
[16]; rate 500 g ai/ha
  crop damage rating SOY: 100
[17]; rate 63 g ai/ha
  phytotoxicity rating AMBEL: 60
[17]; rate 500 g ai/ha
  phytotoxicity rating AMBEL: 90
[18]; rate 63 g ai/ha
  phytotoxicity rating ABUTH: 100
[18]; rate 500 g ai/ha
  phytotoxicity rating ABUTH: 100
[19]; rate 63 g ai/ha
  phytotoxicity rating DIGSA: 0
[19]; rate 500 g ai/ha
  phytotoxicity rating DIGSA: 60
[20]; rate 63 g ai/ha
  phytotoxicity rating AMARE: 100
[20]; rate 500 g ai/ha
  phytotoxicity rating AMARE: 100
[21]; rate 63 g ai/ha
  phytotoxicity rating SORHA: 10
[21]; rate 500 g ai/ha
  phytotoxicity rating SORHA: 70
[22]; rate 63 g ai/ha
  phytotoxicity rating ECHCG: 0
[22]; rate 500 g ai/ha
  phytotoxicity rating ECHCG: 70
[23]; rate 63 g ai/ha
  phytotoxicity rating CHEAL: 99
[23]; rate 500 g ai/ha
  phytotoxicity rating CHEAL: 100
[24]; rate 63 g ai/ha
  phytotoxicity rating IPOHE: 90
[24]; rate 500 g ai/ha
  phytotoxicity rating IPOHE: 100
[25]; rate 63 g ai/ha
  phytotoxicity rating SETVI: 0
[25]; rate 500 g ai/ha
  phytotoxicity rating SETVI: 40

— patent publication US6479435B1, “Diaryl ethers and processes for their preparation and herbicidal and desiccant compositions containing them” (ISK Americas Incorporated, priority 1997, dated 2002)
